Patent publication US10940201B2, “Nucleic acid derivative having immunostimulatory activity” (Shionogi & Co., Ltd., priority 2015, dated 2021)

Key:
[1] = Subcutaneous irritation test in a single dose; format: in vivo, rats; settings: for Gross: Subcutaneous: White nudules / Histopathological, Subcutaneous: Cyst-like structure accompanied with formulation of fibrous capsule / Gross: Epidermis: Crust / Histopathological, Subcutaneous: Cyst-like structure: number of the observed animals; for Histopathological, Muscle layer: Monocyte infiltration / Histopathological, Subcutaneous: Edema / Histopathological, Subcutaneous: Granulomatous infiltration / Histopathological, Subcutaneous: Neutrophilic infiltration / Histopathological, Subcutaneous: Granulomatous inflammation / Histopathological, Subcutaneous: Monocyte infiltration / Histopathological, Subcutaneous: Necrosis: total score of grades; for Administration site, Gross: Subcutaneous: Red spots, Erythema / Administration site, Gross: Subcutaneous: White accumulation / Administration site, Histopathological: Subcutaneous: Cyst-like structure: number of the observed animals (of 3); for Administration site, Gross: Subcutaneous: Red spots, Erythema / Administration site, Gross: Subcutaneous: White accumulation / Administration site, Histopathological: Subcutaneous: Cyst-like structure / Number of deaths / Number of imminent dissections / Administration site, Histopathological: Muscle layer: Edema / Administration site, Histopathological: Muscle layer: Neutrophilic infiltration / Administration site, Histopathological: Subcutaneous: Bleeding / Administration site, Histopathological: Subcutaneous: Edema / Administration site, Histopathological: Subcutaneous: Neutrophilic infiltration: one day after administration; for Number of deaths / Number of imminent dissections / Administration site, Histopathological: Muscle layer: Edema / Administration site, Histopathological: Muscle layer: Neutrophilic infiltration / Administration site, Histopathological: Subcutaneous: Bleeding / Administration site, Histopathological: Subcutaneous: Edema / Administration site, Histopathological: Subcutaneous: Neutrophilic infiltration: 3 animals; for Administration site, Histopathological: Muscle layer: Edema / Administration site, Histopathological: Muscle layer: Neutrophilic infiltration / Administration site, Histopathological: Subcutaneous: Bleeding / Administration site, Histopathological: Subcutaneous: Edema / Administration site, Histopathological: Subcutaneous: Neutrophilic infiltration: total score (Minimal 1, Mild 2, Moderate 3)
Protocol: Subcutaneous irritation of a compound of the present invention was evaluated by gross examination and histopathological examination about the skin at necropsy one day, one and four week(s) after subcutaneous administration in a single dose.
The compound of the present invention was subcutaneously administered to the center of back between the shoulder blades of rats. At necropsy one day, one or four week(s) after administration (isoflurane anesthesia, euthanasia by bleeding), skin at the administration site was collected, grossly observed and fixed in 10% neutral buffered formalin solution. The fixed skin was cut out, embedded and put in a thin slice by the usual methods, and Hematoxylin-eosin (HE) stained sections were made. The pathological observers were observed the HE stained sections by an optical microscope, and recorded the histopathological findings. The changes in pathological findings were evaluated in four grades of Minimal; ±, Mild; +, Moderate; 2+ and Marked; 3+. When any grade was not appropriate for the finding, it was recorded as Positive.
SEQ-2, SEQ-49 or an adjuvant of the present invention was dissolved in phosphate buffered saline and administered at 4.71, 15.7 or 47.1 nmol/1 mL/site, respectively.

B16F10 cells = assay: Anti-tumor effect of TRP2 peptide vaccine using an adjuvant; format: in vivo, mouse; settings: for Tumor inhibition rate (Day 12 after transplantation) / Tumor inhibition rate (Day 14 after transplantation): compared to ODN2006 (SEQ-49)
Protocol: After immunization by TRP2 peptide vaccine, B16F10 cells (ATTC) which is mouse melanoma expressing TRP2 protein was subcutaneously transplanted to evaluate anti-tumor effect. […] The major and minor axes of the engrafted tumor were measured every 2 to 3 days, and the tumor volume was calculated by the formula: (major axis×minor axis^2)/2 Calculation method for indicators of anti-tumor effect For the adjuvant comprising ODN1826 100·(average tumor volume of adjuvant group)/(average tumor volume of ODN1826 group) For the adjuvant comprising ODN2006 100·(average tumor volume of adjuvant group)/(average tumor volume of ODN2006 group)

[2] = four weeks after administration, 4.71 nmol/site
[3] = four weeks after administration, 15.7 nmol/site
[4] = four weeks after administration, 47.1 nmol/site
[5] = one week after administration, 4.71 nmol/site
[6] = one week after administration, 15.7 nmol/site
[7] = one week after administration, 47.1 nmol/site

ODN2006 [SEQ-49]
Number of deaths/imminent dissections [1, 2]: 0/0 | Gross: Subcutaneous: White nudules [1, 2]: 0 | Histopathological, Subcutaneous: Cyst-like structure accompanied with formulation of fibrous capsule [1, 2]: 0 | Histopathological, Muscle layer: Monocyte infiltration [1, 2]: 0 | Histopathological, Subcutaneous: Edema [1, 2]: 0 | Histopathological, Subcutaneous: Granulomatous infiltration [1, 2]: 0 | Histopathological, Subcutaneous: Neutrophilic infiltration [1, 2]: 0 | Number of deaths/imminent dissections [1, 3]: 0/0 | Gross: Subcutaneous: White nudules [1, 3]: 0 | Histopathological, Subcutaneous: Cyst-like structure accompanied with formulation of fibrous capsule [1, 3]: 0 | Histopathological, Muscle layer: Monocyte infiltration [1, 3]: 0 | Histopathological, Subcutaneous: Edema [1, 3]: 0 | Histopathological, Subcutaneous: Granulomatous infiltration [1, 3]: 0 | Histopathological, Subcutaneous: Neutrophilic infiltration [1, 3]: 0 | Number of deaths/imminent dissections [1, 4]: 0/0 | Gross: Subcutaneous: White nudules [1, 4]: 0 | Histopathological, Subcutaneous: Cyst-like structure accompanied with formulation of fibrous capsule [1, 4]: 0 | Histopathological, Muscle layer: Monocyte infiltration [1, 4]: 0 | Histopathological, Subcutaneous: Edema [1, 4]: 0 | Histopathological, Subcutaneous: Granulomatous infiltration [1, 4]: 0 | Histopathological, Subcutaneous: Neutrophilic infiltration [1, 4]: 0 | Administration site, Gross: Subcutaneous: Red spots, Erythema ([1]; 4.71 nmol/site): 0 | Administration site, Gross: Subcutaneous: White accumulation ([1]; 4.71 nmol/site): 0 | Administration site, Histopathological: Subcutaneous: Cyst-like structure ([1]; 4.71 nmol/site): 0 | Administration site, Gross: Subcutaneous: Red spots, Erythema ([1]; 15.7 nmol/site): 0 | Administration site, Gross: Subcutaneous: White accumulation ([1]; 15.7 nmol/site): 0 | Administration site, Histopathological: Subcutaneous: Cyst-like structure ([1]; 15.7 nmol/site): 0 | Administration site, Gross: Subcutaneous: Red spots, Erythema ([1]; 47.1 nmol/site): 1 | Administration site, Gross: Subcutaneous: White accumulation ([1]; 47.1 nmol/site): 0 | Administration site, Histopathological: Subcutaneous: Cyst-like structure ([1]; 47.1 nmol/site): 0 | Number of deaths ([1]; 4.71 nmol/site): 0/0 | Number of imminent dissections ([1]; 4.71 nmol/site): 0/0 | Number of deaths ([1]; 15.7 nmol/site): 0/0 | Number of imminent dissections ([1]; 15.7 nmol/site): 0/0 | Number of deaths ([1]; 47.1 nmol/site): 0/0 | Number of imminent dissections ([1]; 47.1 nmol/site): 0/0 | Number of deaths/imminent dissections [1, 5]: 0/0 | Gross: Epidermis: Crust [1, 5]: 1 | Gross: Subcutaneous: White nudules [1, 5]: 0 | Histopathological, Subcutaneous: Cyst-like structure [1, 5]: 0 | Histopathological, Subcutaneous: Edema [1, 5]: 4 | Histopathological, Subcutaneous: Granulomatous inflammation [1, 5]: 0 | Histopathological, Subcutaneous: Monocyte infiltration [1, 5]: 3 | Histopathological, Subcutaneous: Necrosis [1, 5]: 0 | Histopathological, Subcutaneous: Neutrophilic infiltration [1, 5]: 0 | Number of deaths/imminent dissections [1, 6]: 0/0 | Gross: Epidermis: Crust [1, 6]: 1 | Gross: Subcutaneous: White nudules [1, 6]: 0 | Histopathological, Subcutaneous: Cyst-like structure [1, 6]: 0 | Histopathological, Subcutaneous: Edema [1, 6]: 6 | Histopathological, Subcutaneous: Granulomatous inflammation [1, 6]: 0 | Histopathological, Subcutaneous: Monocyte infiltration [1, 6]: 6 | Histopathological, Subcutaneous: Necrosis [1, 6]: 0 | Histopathological, Subcutaneous: Neutrophilic infiltration [1, 6]: 0 | Number of deaths/imminent dissections [1, 7]: 0/0 | Gross: Epidermis: Crust [1, 7]: 0 | Gross: Subcutaneous: White nudules [1, 7]: 0 | Histopathological, Subcutaneous: Cyst-like structure [1, 7]: 0 | Histopathological, Subcutaneous: Edema [1, 7]: 5 | Histopathological, Subcutaneous: Granulomatous inflammation [1, 7]: 0 | Histopathological, Subcutaneous: Monocyte infiltration [1, 7]: 8 | Histopathological, Subcutaneous: Necrosis [1, 7]: 0 | Histopathological, Subcutaneous: Neutrophilic infiltration [1, 7]: 0 | subcutaneous irritation findings four weeks after administration ([1]; rats, single subcutaneous dose, four weeks): inflammation was almost recovered | subcutaneous irritation findings one day after administration ([1]; rats, single subcutaneous dose, one day): acute inflammation, mainly neutrophil infiltration, was observed under the skin | subcutaneous irritation findings one week after administration ([1]; rats, single subcutaneous dose, one week): inflammation, mainly lymphocyte and macrophage, was observed from subcutaneous to dermis tissue | Administration site, Histopathological: Muscle layer: Edema ([1]; 4.71 nmol/site): 2 | Administration site, Histopathological: Muscle layer: Neutrophilic infiltration ([1]; 4.71 nmol/site): 4 | Administration site, Histopathological: Subcutaneous: Bleeding ([1]; 4.71 nmol/site): 2 | Administration site, Histopathological: Subcutaneous: Edema ([1]; 4.71 nmol/site): 4 | Administration site, Histopathological: Subcutaneous: Neutrophilic infiltration ([1]; 4.71 nmol/site): 6 | Administration site, Histopathological: Muscle layer: Edema ([1]; 15.7 nmol/site): 1 | Administration site, Histopathological: Muscle layer: Neutrophilic infiltration ([1]; 15.7 nmol/site): 6 | Administration site, Histopathological: Subcutaneous: Bleeding ([1]; 15.7 nmol/site): 1 | Administration site, Histopathological: Subcutaneous: Edema ([1]; 15.7 nmol/site): 5 | Administration site, Histopathological: Subcutaneous: Neutrophilic infiltration ([1]; 15.7 nmol/site): 6 | Administration site, Histopathological: Muscle layer: Edema ([1]; 47.1 nmol/site): 0 | Administration site, Histopathological: Muscle layer: Neutrophilic infiltration ([1]; 47.1 nmol/site): 5 | Administration site, Histopathological: Subcutaneous: Bleeding ([1]; 47.1 nmol/site): 2 | Administration site, Histopathological: Subcutaneous: Edema ([1]; 47.1 nmol/site): 5 | Administration site, Histopathological: Subcutaneous: Neutrophilic infiltration ([1]; 47.1 nmol/site): 6 | effect of inhibition on tumor progression of B16F10 cells (in words) (B16F10 cells): little effect of inhibition on tumor progression of B16F10 cells | Tumor inhibition rate (Day 12 after transplantation) (B16F10 cells; Table 41, 4.71 nmol): 0.00% | Tumor inhibition rate (Day 12 after transplantation) (B16F10 cells; Table 42, 4.71 nmol): 0.00% | Tumor inhibition rate (Day 14 after transplantation) (B16F10 cells; Table 43, 4.71 nmol): 0.00% | Tumor inhibition rate (Day 14 after transplantation) (B16F10 cells; Table 45, 4.71 nmol): 0.00% | Tumor inhibition rate (Day 14 after transplantation) (B16F10 cells; Table 46, 4.71 nmol): 0.00% | Tumor inhibition rate (Day 14 after transplantation) (B16F10 cells; Table 48, 4.71 nmol): 0.00%
